We go through seven compounds from publication PMC3750009, “Non-peptidic Cruzain Inhibitors with Trypanocidal Activity Discovered by Virtual Screening and In Vitro Assay” (PLoS Neglected Tropical Diseases, 2013).

Usually Ki stands for the equilibrium dissociation constant of an inhibitor or competing ligand from its target.

Molecules are shown by their SMILES. Where two headings read alike, the source gives them in different places.

Series [1] in a line: mammalian cell cytotoxicity, propidium iodide flow cytometry. The settings on record: C57BL/6, mouse, primary spleen cells, mouse spleen cells, 24 h; read-out: Cytotoxic IC50. Type of series: cell-based, mice. On the procedure: (§1) Mammalian cell cytotoxicity was evaluated using the protocol previously reported. Spleen cells from C57BL/6 mice were isolated by mechanical dissociation, followed by incubation for 5 min with red blood cell lysis buffer (one part of 0.17 M Tris–HCl [pH 7.5] and nine parts of 0.16 M ammonium chloride). The cells were washed and suspended in RPMI 1640 medium (Gibco-BRL Life Technologies, Grand Island, NY) supplemented with 10% fetal bovine serum (Life Technologies Inc., Bethesda, MD) and antibiotics (Sigma). The cell suspension was cultured in flat-bottom 96-well plates at 5×10^5 cells per well with different concentrations of the tested compounds and incubated at 37°C in a humidified atmosphere of 5% CO2 for 24 h. Tween 20 at 0.5% was used as cell death positive control. To analyze cytotoxicity, cells were harvested, incubated with 10 µg mL^−1 propidium iodide (Sigma) and after 15 min data were acquired using a FACSCantoII (Becton-Dickinson Immunocytometry System Inc., San Jose, CA, USA). Data analysis was performed using FlowJo software (Ashland, OR, USA). The range of concentrations used for assaying cytotoxicity was 250, 125, 62.5, 31.25, 15.6, 7.8, 3.9, and 1.95 (µM).

For series [2], the target named is T1, cruzain (Trypanosoma cruzi, UniProt P25779).
T1 construct: Recombinant cruzain enzyme was expressed and purified as previously described; made in house
T1 sequence (P25779 123-337 limits assumed): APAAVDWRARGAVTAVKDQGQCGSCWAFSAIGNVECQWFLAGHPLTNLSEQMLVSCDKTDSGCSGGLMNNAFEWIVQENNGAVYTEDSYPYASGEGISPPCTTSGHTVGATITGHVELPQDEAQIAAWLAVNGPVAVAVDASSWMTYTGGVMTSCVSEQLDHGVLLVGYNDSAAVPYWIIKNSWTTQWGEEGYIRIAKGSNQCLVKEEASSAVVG
As to the kind of experiment: cruzain enzyme assay, IC50 determination (Z-FR-MCA fluorescence). Type of series: biochemical. The settings on record: for IC50: Neq42 analogs, SAR, unit inferred, read-out: IC50, cruzain inhibition (Figure 6). On the procedure: (§2) Recombinant cruzain enzyme was expressed and purified as previously described. The activity of the cruzain enzyme was measured and quantified through active-site titration with the irreversible inhibitor E-64, as described previously. Cathepsin L enzyme and all reagents used for buffer preparation were purchased from Sigma-Aldrich (St. Louis, MO, USA). The compounds screened against the enzymes were purchased from Enamine (Kiev, Ukraine), Chemdiv (San Diego, CA, USA), Asinex (Moscow, Russia) and IBScreen (Moscow, Russia) and had more than 95%purity, according to these suppliers. All experiments were carried out with freshly made solutions.
The activity of cruzain was measured in 100 mM phosphate buffer, 100 mM NaCl, 10 mM EDTA, DMSO (5.0% v/v), Triton X-100 (0.01% v/v) and 5.0 mM DTT at pH 6.3. The activity of cathepsin L was measured in 100 mM sodium acetate buffer, 100 mM NaCl, 10 mM EDTA, DMSO (5.0% v/v), Triton X-100 (0.01% v/v) and 5.0 mM DTT at pH 5.5. Both assays were carried out with 2 nM of the respective enzymes and 2 µM of the substrate Z-FR-MCA.
The reaction started by the addition of the substrate Z-FR-MCA was monitored by recording the emission at wavelength 460 nm while exciting at 360 nm. Fluorescence was measured using a Synergy HT fluorimeter microplate reader (Biotek). The percentage of inhibition was calculated according to following equation: [drawing 1] where vi and v0 are the initial velocities determined in presence and absence of inhibitors, respectively. The activity of enzyme in the presence of inhibitors was measured in 11 different concentrations in order to obtain the dose-response curves, which were analyzed using the Origin 7.0 program to determine the IC50 values. All experiments were repeated at least in duplicate.

Series [3] deals with T. cruzi Tulahuen lacZ strain. Briefly: in vitro trypanocidal activity, infected LLC-MK2 cells, CPRG readout. It is filed as cell-based, Trypanosoma cruzi. The settings on record: for IC50: Trypanosoma cruzi. As to the method:
In vitro trypanocidal activity of the compounds was evaluated against amastigote forms of Tulahuen strain that was genetically modified to express β-galactosidase gene from E. coli (lacZ). A monkey kidney cell strain (LLC-MK2 - ATCC) was resuspended in RPMI medium without phenol red (Gibco-BRL Life Technologies, Grand Island, NY) containing 10% fetal bovine serum (Life Technologies Inc., Bethesda, MD) and antibiotics (Sigma Chemical Co., St. Louis) at 2×10^3 cells/well and were cultured in 96-well plates for 24 h. The cells were infected with 1×10^4 trypomastigote forms of T. cruzi Tulahuen strain, and after 24 h compounds were added with different concentrations (250, 125, 62.5, 31.25, 15.6, 7.8, 3.9 and 1.95 µM). After 4 days of culture, 50 µL of PBS containing 0.5% of Triton X-100 and 100 µM Chlorophenol Red-β-D-galactoside (CPRG - Sigma) were added. Plates were incubated at 37°C for 4 h and absorbance was read at 570 nm. Benznidazole (N-benzyl-2-nitro-1-imidazolacetamide), in the same concentrations as above was used as a reference trypanocidal drug (positive control), [41].

The test system of series [4] is Chagas disease. More on the design: method as in PMID 19620707. The settings on record: mice and dogs ref 13; cited from earlier work.
Details of series [5]: method as in PMID 19620707. The following applies: pre-clinical trials ref 13; cited from earlier work.
In series [6] the test system is Spleen cells from C57BL/6 mice. Briefly: mammalian cell cytotoxicity, propidium iodide flow cytometry. The following applies: for IC50: mouse spleen cells, 24 h, read-out: Cytotoxic IC50; for cytotoxicity ratio (IC50(cyto)/IC50)(T. cruzi): spleen cell IC50 over T. cruzi IC50. Type of series: cell-based. As to the method: as §1
Background: A flow cytometer gives signals particle by particle.

The target in series [7] is T1, cruzain. As to the kind of experiment: cruzain affinity constant (Ki) and mechanism determination, Michaelis-Menten curves. Type of series: biochemical. The following applies: pH 6.3, 0.01% Triton X-100, inhibitor 30, 50 and 70 µM. As to the method: as §2
(§3) The activity of cruzain was measured in 100 mM phosphate buffer, 100 mM NaCl, 10 mM EDTA, DMSO (5.0% v/v), Triton X-100 (0.01% v/v) and 5.0 mM DTT at pH 6.3. The activity of cathepsin L was measured in 100 mM sodium acetate buffer, 100 mM NaCl, 10 mM EDTA, DMSO (5.0% v/v), Triton X-100 (0.01% v/v) and 5.0 mM DTT at pH 5.5. […]
(§4) The Michaelis-Menten curves were determined in the absence and presence of 30, 50 and 70 µM respectively of each inhibitor. […] The reaction was started and monitored as described above. The mechanisms of inhibition and K i values were determined using the kinetic module of SigmaPlot 10.0 by adjusting the velocities into the competitive, non-competitive and uncompetitive modes. […]

Series [8] deals with T2, cathepsin L (Homo sapiens, UniProt P07711).
T2 construct: Cathepsin L enzyme and all reagents used for buffer preparation were purchased from Sigma-Aldrich; purchased Sigma-Aldrich (St. Louis, MO, USA)
T2 sequence (P07711 114-333): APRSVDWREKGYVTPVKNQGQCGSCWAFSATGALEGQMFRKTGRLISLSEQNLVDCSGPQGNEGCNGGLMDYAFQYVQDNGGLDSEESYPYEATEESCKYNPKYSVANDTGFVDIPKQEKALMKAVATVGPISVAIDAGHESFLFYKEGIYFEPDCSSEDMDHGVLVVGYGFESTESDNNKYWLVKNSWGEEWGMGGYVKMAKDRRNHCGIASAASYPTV
As to the kind of experiment: cathepsin L enzyme assay, IC50 determination (Z-FR-MCA fluorescence). It is filed as biochemical. The following applies: pH 5.5, 0.01% Triton X-100, 2 nM enzyme, 2 µM Z-FR-MCA. On the procedure:
as §2, §3
The reaction started by the addition of the substrate Z-FR-MCA was monitored by recording the emission at wavelength 460 nm while exciting at 360 nm. Fluorescence was measured using a Synergy HT fluorimeter microplate reader (Biotek). The percentage of inhibition was calculated according to following equation: [drawing 1] where vi and v0 are the initial velocities determined in presence and absence of inhibitors, respectively. […]

The target of series [9] is T2, cathepsin L. Briefly: cathepsin L affinity constant (Ki) determination, Michaelis-Menten curves. Type of series: biochemical. The settings on record: pH 5.5, 0.01% Triton X-100, inhibitor 30, 50 and 70 µM. On the procedure: as §2, §3, §4
Series [10] has as its system Chagas disease. Also on record: method as in PMID 19900395. The settings on record: acute phase ref 5; cited from earlier work.
The mark [11] stands for this setting: LLC-MK2, 96 h, Tulahuen lacZ strain, 4 days of culture, read-out: Trypanocidal activity IC50.
Where [12] appears, read: TULAHUEN, LLC-MK2, average for compounds Neq165, Neq172, Neq176 and Neq177, read-out: trypanocidal pIC50 on average (converted).
The mark [13] stands for this setting: LLC-MK2, Tulahuen lacZ strain, read-out: trypanocidal pIC50 (converted).

Regarding `NC(=O)c1ccsc1NC(=O)CSc1nnc[nH]1` [Neq176], in [1], the IC50 at 24 h is more than 250 µM. The figures for the IC50 in series [2], in series [3] (setting [11]) and in series [3] (setting [12]) were 68.5 ± 3 µM, 108 ± 52.2 µM and approximately 158 µM, respectively. Besides, in series [2] (from cruzain potency), the “ligand efficiency (LE)” value is recorded as 0.33 kcal mol^-1 atom^-1.

In the case of `CN1CCN(C(=O)N[C@@H](Cc2ccccc2)C(=O)N[C@H](/C=C/S(=O)(=O)c2ccccc2)CCc2ccccc2)CC1` [Compound K11777], the “efficacy in models of acute and chronic Chagas disease” value in series [4] is “demonstrated efficacy”. In series [5], the mutagenicity entry is reported as “non-mutagenic”, the pharmacokinetic profile result was “acceptable pharmacokinetic profile” and the tolerability entry is “well tolerated”.

In the case of `NC(=O)c1ccsc1NC(=O)CSc1nnc(CN2CCCCC2)n1Cc1ccccc1` [Neq42], the IC50 at 24 h in series [1] is 50 µM. Besides, the IC50 in series [6] is 49.9 ± 2.7 µM; in [2] it was 21.6 ± 5.4 µM; in series [3] (setting [11]), 10.6 ± 0.1 µM; in series [3] (setting [13]), 12.6 µM; in series [8], 35.1 ± 11 µM. For the same compound, the “cytotoxicity ratio (IC50(cyto)/IC50)(T. cruzi)” value in series [6] is 5. For the same compound, the values for the Ki in series [7] and in series [9] were 18.5 ± 5.5 µM and 35.6 ± 8.2 µM, respectively. Also, in series [3] (single dose of 250 µM, Tulahuen lacZ strain), the preliminary trypanocidal activity entry is “active”.

Regarding `NC(=O)c1ccsc1NC(=O)COC(=O)[C@@H](Cc1ccccc1)NC(=O)OCc1ccccc1` [Neq172], the IC50 at 24 h in series [1] was found to be 23 µM. Besides, the IC50 is 23.1 ± 2.7 µM in [6], 73.1 ± 4.9 µM in [2], 166 ± 12.9 µM in series [3] (setting [11]) and approximately 158 µM in series [3] (setting [12]).

`Cc1nnc(SCC(=O)Nc2sccc2C(N)=O)n1Cc1ccccc1` [Neq165]: the IC50 in [2] was 31.3 ± 1.2 µM; in [3] (setting [11]), 153.4 ± 0.6 µM; in [3] (setting [12]), approximately 158 µM.

Turning to `O=C(Cn1ccnc1[N+](=O)[O-])NCc1ccccc1` [Bz, N-benzyl-2-nitro-1-imidazolacetamide, reference compound], the IC50 at 24 h in series [1] was more than 500 µM. Besides, the “cytotoxicity ratio (IC50(cyto)/IC50)(T. cruzi)” value in series [6] is given as 8. For the same compound, the successful cure result in series [10] was “up to 80%”. For the same compound, the figures for the IC50 in [3] (setting [11]) and in series [3] (setting [13]) were 64.3 ± 12.3 µM and 63.1 µM, respectively.

Turning to `CC(Sc1nncn1-c1ccccc1)C(=O)Nc1sccc1C(N)=O` (stereo not drawn) [Neq177], the IC50 at 24 h in series [1] was more than 250 µM. For the same compound, the IC50 in [2] is 48.9 ± 10 µM; in [3] (setting [11]) it was 137 ± 14.4 µM; in series [3] (setting [12]) it was approximately 158 µM.
